In test [1] the test system is #987 E. faecium van B ST39. Nature of the test: Antibacterial assay (MIC), VRE strain #987, Enterococossel Broth, Example 1. It counts as cell-based, Enterococcus faecium. The note with it: Enterococcus faecium; Example 1 compounds; VRE #987 E. faecium van B; 24 hrs, 37° C.; read-out: 987 (minimum inhibitory concentration). The method, then: (§1) Antibacterial Assay Method for Staphylococcus aureus (ATCC 6538P) and Enterococcus faecium
(§2) #820 E. faecium van A ST17 #987 E. faecium van B ST39
(§3) Compounds are accurately weighed out (between approx. 1-2 mg) and dissolved in either 10% methanol/water (v/v) or 100% DMSO to a final stock concentration of 5 mg/ml.
(§4) Compounds are then diluted 1/10 in H2O to a test conc of 500 ug/ml ready for immediate use, or storage at −20° C.
(§5) Grow up an o/n starter culture of Staphylococcus aureus and each VRE strain by diluting previous culture (stored at 4° C.) 1/1000 into −50 mls Luria Broth (LB) for S. aureus or Enterococossel Broth (EB) for the VRE strains.
(§6) Incubate o/n at 37° C.+shaking. • A glycerol stock (0.6 mls bacterial culture, 0.3 mls glycerol) of each strain is kept at −80° C. if needed. Assay Set Up:
(§7) In a 96well round bottom plate add 50 ul LB/well for the S. aureus plate and add 50 ul EB/well for the VRE plates.
(§8) Add 50 ul of compound dilution (500 ug/ml test conc) to each of three top row wells (ie: tested in triplicate) and dilute 1 in 2 from the top row to the bottom row.
(§9) After the compound dilution, add to each well 50 ul of a 1/1000 dilution of the appropriate overnight bacterial culture, either S. aureus or the different VRE strains.
(§10) Plates are incubated at 37° C. on a slowly rotating plate incubator. • test concentrations are (in ug/ml) 125, 62.5, 31.25, 15.6, 7.8, 3.9, 1.9, 0.98 • final DMSO concentration in the first row of wells of the assay is 2.5% • Vancomycin is included in the assay (in triplicate) at a starting test concentration of 5 ug/ml for S. aureus and 125 ug/ml for the VRE strains Reading Results of Assay:
(§11) After incubation for 24 hrs the plates are removed and read. Inhibition of bacterial growth is indicated by lack of bacterial pellet or a clear well. In the VRE plates bacterial growth is indicated by black coloured media (EB) as well as a bacterial pellet.
(§12) Untreated control wells are included in the assay to check they all contain bacterial pellets. Uninoculated untreated control wells are included to check they all contain clear medium.
(§13) The plates are analysed for MIC and the results tabulated.

Test [2] deals with #243 E. faecium van B ST17. Nature of the test: Antibacterial assay (MIC), VRE strain #243, Enterococossel Broth, Example 1. The format is cell-based, Enterococcus faecium. The note with it: Enterococcus faecium; Example 1 compounds; VRE #243 E. faecium van B; 24 hrs, 37° C.; read-out: 243 (minimum inhibitory concentration). As to the method: as §1
(§14) VRE strains: #243 E. faecium van B ST17 #449 E. faecium van B ST17
as §3, §4, §5, §6, §7, §8, §9, §10, §11, §12, §13

The subject of test [3] is #820 E. faecium van A ST17. Kind of test: Antibacterial assay (MIC), VRE strain #820, Enterococossel Broth, Example 1. It counts as cell-based, Enterococcus faecium. The conditions noted are these: Enterococcus faecium; Example 1 compounds; VRE #820 E. faecium van A; 24 hrs, 37° C.; read-out: 820 (minimum inhibitory concentration). As to the method: as §1, §2, §3, §4, §5, §6, §7, §8, §9, §10, §11, §12, §13

Test [4] has as its system #449 E. faecium van B ST17. Nature of the test: Antibacterial assay (MIC), VRE strain #449, Enterococossel Broth, Example 1. The conditions noted are these: Enterococcus faecium; Example 1 compounds; VRE #449 E. faecium van B; 24 hrs, 37° C.; read-out: 449 (minimum inhibitory concentration). The format is cell-based, Enterococcus faecium. The method, then: as §1, §14, §3, §4, §5, §6, §7, §8, §9, §10, §11, §12, §13

Test [5] has as its system Staphylococcus aureus (ATCC 6538P). Kind of test: Antibacterial assay (MIC), Staphylococcus aureus ATCC 6538P, Luria Broth, Example 1. The format is cell-based. The note with it: Staphylococcus aureus, ATCC6538P; Example 1 compounds; S. aureus ATCC 6538P; 24 hrs, 37° C.; range if at least two of three values fell within it; read-out: Sa (minimum inhibitory concentration). As to the method: as §1
Staphylococcus aureus (ATCC 6538P)
as §3, §4, §5, §6, §7, §8, §9, §10, §11, §12, §13

Values after ≈ are worked out from the molar mass of the structure shown.

As to `N=C(N)NCCC[C@@H](NC(=O)CCCOc1ccc2ccccc2c1-c1c(OCCCC(=O)N[C@H](CCCNC(=N)N)C(=O)OCc2ccccn2)ccc2ccccc12)C(=O)OCc1ccccn1` [Compound 37], the MIC is > 62.6 µg/mL in test [1]; > 62.6 µg/mL in test [2]; > 62.6 µg/mL in test [3]; > 62.6 µg/mL in test [4]; 0.99 to 15.6 µg/mL (≈ 1.04 to 16.4 µM) in test [5].

Consider `Cc1ccc(COC(=O)[C@H](CC(C)C)NC(=O)[C@@H](CCCNC(=N)N)NC(=O)[C@@H](CCCCN)NC(=O)COc2ccc3ccccc3c2-c2c(OCCC(C)C)ccc3ccccc23)cc1.Cl.Cl` (atropisomer, axis not shown) [Compound 9], for which the MIC is 15.7 to 62.5 µg/mL in test [1]; > 62.6 µg/mL in test [2]; 15.7 to 62.5 µg/mL in test [3]; 15.7 to 62.5 µg/mL in test [4]; 0.99 to 15.6 µg/mL in test [5].

Turning to `CCC(C)[C@H](NC(=O)[C@@H](CCCNC(=N)N)NC(=O)[C@@H](CCCCN)NC(=O)COc1ccc2ccccc2c1-c1c(OCCC(C)C)ccc2ccccc12)C(=O)OCc1ccccc1.Cl.Cl` (stereo partly drawn) [Compound 3], the MIC in test [1] was in the range of 15.7 to 62.5 µg/mL; in test [2], 15.7 to 62.5 µg/mL; in test [3] it was 15.7 to 62.5 µg/mL; in test [4], 15.7 to 62.5 µg/mL; in test [5], 0.99 to 15.6 µg/mL.

As for `C=CC[C@H](NC(=O)[C@@H](CCCNC(=N)N)NC(=O)[C@@H](CCCCN)NC(=O)COc1ccc2ccccc2c1-c1c(OCCC(C)C)ccc2ccccc12)C(=O)OCc1ccccc1.Cl.Cl` (atropisomer, axis not shown) [Compound 29], the MIC in test [1] is 15.7 to 62.5 µg/mL; in test [2] it was 15.7 to 62.5 µg/mL; in test [3] it was 0.99 to 15.6 µg/mL; in test [4], 0.99 to 15.6 µg/mL; in test [5] it was 0.99 to 15.6 µg/mL.

As to `CC(C)CCOc1ccc2ccccc2c1-c1c(OCC(=O)N[C@H](CCCCN)C(=O)N[C@H](CCCNC(=N)N)C(=O)N[C@@H](CC(C)C)C(=O)OCCc2ccccc2)ccc2ccccc12.Cl.Cl` (atropisomer, axis not shown) [Compound 13], the MIC lay in the range of 15.7 to 62.5 µg/mL in test [1]; 15.7 to 62.5 µg/mL in test [2]; 15.7 to 62.5 µg/mL in test [3]; 15.7 to 62.5 µg/mL in test [4]; 0.99 to 15.6 µg/mL in test [5].

Turning to `Cl.Cl.NCCCC[C@@H](NC(=O)CCCOc1ccc2ccccc2c1-c1c(OCCCC(=O)N[C@H](CCCCN)C(=O)OCc2ccccc2)ccc2ccccc12)C(=O)OCc1ccccc1` (atropisomer, axis not shown) [Compound 34], the MIC in test [1] was > 62.6 µg/mL; in test [2] it was > 62.6 µg/mL; in test [3], 15.7 to 62.5 µg/mL; in test [4], 15.7 to 62.5 µg/mL; in test [5] it was 0.99 to 15.6 µg/mL.

`C=CCOc1ccc2ccccc2c1-c1c(OCC(=O)N[C@H](CCCN)C(=O)Nc2cccc(C(=O)OC)c2)ccc2ccccc12.Cl` (atropisomer, axis not shown) [Compound 41]: the MIC is > 62.6 µg/mL in test [1]; > 62.6 µg/mL in test [2]; > 62.6 µg/mL in test [3]; > 62.6 µg/mL in test [4]; 0.99 to 15.6 µg/mL in test [5].

As for `Cl.Cl.N=C(N)NCCCC[C@@H](NC(=O)CCCOc1ccc2ccccc2c1-c1c(OCCCC(=O)N[C@H](CCCCNC(=N)N)C(=O)OCc2ccccc2)ccc2ccccc12)C(=O)OCc1ccccc1` (atropisomer, axis not shown) [Compound 39], the MIC is > 62.6 µg/mL in test [1]; > 62.6 µg/mL in test [2]; 15.7 to 62.5 µg/mL in test [3]; 15.7 to 62.5 µg/mL in test [4]; 0.99 to 15.6 µg/mL in test [5].

Consider `CC(C)CCOc1ccc2ccccc2c1-c1c(OCC(=O)N[C@H](CCCCN)C(=O)N[C@H](CCCNC(=N)N)C(=O)N[C@H](C(=O)OCc2ccccc2)C(C)C)ccc2ccccc12.Cl.Cl` (atropisomer, axis not shown) [Compound 2], for which the MIC was 15.7 to 62.5 µg/mL in test [1]; 15.7 to 62.5 µg/mL in test [2]; 15.7 to 62.5 µg/mL in test [3]; 15.7 to 62.5 µg/mL in test [4]; 0.99 to 15.6 µg/mL in test [5].

For the compound `CC(C)CCOc1ccc2ccccc2c1-c1c(OCC(=O)N[C@H](CCCCN)C(=O)N[C@H](CCCNC(=N)N)C(=O)N[C@@H](CC(C)C)C(=O)OCc2c(Cl)cccc2Cl)ccc2ccccc12.Cl.Cl` (atropisomer, axis not shown) [Compound 8], the MIC in test [1] was > 62.6 µg/mL; in test [2] it was > 62.6 µg/mL; in test [3] it was > 62.6 µg/mL; in test [4], > 62.6 µg/mL; in test [5], 15.7 to 62.5 µg/mL.

As to `CC(C)CCOc1ccc2ccccc2c1-c1c(OCC(=O)N[C@H](CCCCN)C(=O)N[C@H](CCCNC(=N)N)C(=O)N[C@@H](CC(C)C)C(=O)OCc2ccccc2Cl)ccc2ccccc12.Cl.Cl` (atropisomer, axis not shown) [Compound 7], the MIC lay within 15.7 to 62.5 µg/mL in test [1]; 15.7 to 62.5 µg/mL in test [2]; 15.7 to 62.5 µg/mL in test [3]; 15.7 to 62.5 µg/mL in test [4]; 0.99 to 15.6 µg/mL in test [5].

With `C=CC[C@H](NC(=O)[C@@H](CCCNC(=N)N)NC(=O)[C@@H](CCCCN)NC(=O)COc1ccc2ccccc2c1-c1c(OCCCCC)ccc2ccccc12)C(=O)OCc1ccccc1.Cl.Cl` (atropisomer, axis not shown) [Compound 26], the MIC in test [1] fell in the range of 15.7 to 62.5 µg/mL; in test [2], 15.7 to 62.5 µg/mL; in test [3], 15.7 to 62.5 µg/mL; in test [4], 15.7 to 62.5 µg/mL; in test [5], 0.99 to 15.6 µg/mL.

Take `CC(C)CCOc1ccc2ccccc2c1-c1c(OCC(=O)N[C@H](CCCCN)C(=O)N[C@H](CCCNC(=N)N)C(=O)N[C@@H](Cc2ccccc2)C(=O)OCc2ccccc2)ccc2ccccc12.Cl.Cl` (atropisomer, axis not shown) [Compound 19]: the MIC was 15.7 to 62.5 µg/mL in test [1]; 15.7 to 62.5 µg/mL in test [2]; 15.7 to 62.5 µg/mL in test [3]; 15.7 to 62.5 µg/mL in test [4]; 0.99 to 15.6 µg/mL in test [5].

Consider `C=CC[C@H](NC(=O)[C@@H](CCCNC(=N)N)NC(=O)[C@@H](CCCCN)NC(=O)COc1ccc2ccccc2c1-c1c(OCC2CCCCC2)ccc2ccccc12)C(=O)OCc1ccccc1.Cl.Cl` (atropisomer, axis not shown) [Compound 23], for which the MIC in test [1] is 15.7 to 62.5 µg/mL; in test [2] it was 15.7 to 62.5 µg/mL; in test [3], 15.7 to 62.5 µg/mL; in test [4], 15.7 to 62.5 µg/mL; in test [5], 0.99 to 15.6 µg/mL.

In the case of `C=CCOc1ccc2ccccc2c1-c1c(OCC(=O)N[C@H](CCCNC(=N)N)C(=O)Nc2cccc(C(=O)OCc3ccccc3)c2)ccc2ccccc12.Cl` (atropisomer, axis not shown) [Compound 45], the MIC in test [1] was in the range of 15.7 to 62.5 µg/mL; in test [2], 15.7 to 62.5 µg/mL; in test [3], 15.7 to 62.5 µg/mL; in test [4] it was 15.7 to 62.5 µg/mL; in test [5] it was 0.99 to 15.6 µg/mL.

`Cl.Cl.NCCCC[C@@H](NC(=O)CCCOc1ccc2ccccc2c1-c1c(OCCCC(=O)N[C@H](CCCCN)C(=O)OCc2cccc3ccccc23)ccc2ccccc12)C(=O)OCc1cccc2ccccc12` (atropisomer, axis not shown) [Compound 35]: the MIC in test [1] was > 62.6 µg/mL; in test [2], > 62.6 µg/mL; in test [3] it was 15.7 to 62.5 µg/mL; in test [4], > 62.6 µg/mL; in test [5] it was 0.99 to 15.6 µg/mL.

As to `C=CCOc1ccc2ccccc2c1-c1c(OCC(=O)N[C@H](CCCN)C(=O)Nc2cccc(C(=O)OCc3ccccc3)c2)ccc2ccccc12.Cl` (atropisomer, axis not shown) [Compound 42], the MIC in test [1] was > 62.6 µg/mL; in test [2], > 62.6 µg/mL; in test [3], > 62.6 µg/mL; in test [4], > 62.6 µg/mL; in test [5] it was 15.7 to 62.5 µg/mL.

In the case of `CC(C)CCOc1ccc2ccccc2c1-c1c(OCC(=O)N[C@H](CCCCN)C(=O)N[C@H](CCCNC(=N)N)C(=O)NC2(C(=O)OCc3ccccc3)CCCC2)ccc2ccccc12.Cl.Cl` (atropisomer, axis not shown) [Compound 20], the MIC in test [1] lay in the range of 15.7 to 62.5 µg/mL; in test [2] it was 15.7 to 62.5 µg/mL; in test [3] it was 15.7 to 62.5 µg/mL; in test [4], 15.7 to 62.5 µg/mL; in test [5], 0.99 to 15.6 µg/mL.

Values taken from patent publication US8039430B2 (University of Wollongong, priority 2005, dated 2011).
